Laboratory results: patent publication EP3046573B1, “AMYLIN ANALOGUES” (Zealand Pharma A/S, priority 2013, dated 2015)
Read-outs that look alike come from different tables or passages of the source. Numbered stars: 1 amine (or outer) side, 2 acyl side, 3 side chain; on linkers, the order of the positions; unused ones are H or OH. Bridge positions count the residues as written; N and C are the ends. Square brackets hold non-standard residues; d marks the D form. Peptide text beside a SMILES is read from it. * marks the point of attachment. C20 diacid = O=C(O)CCCCCCCCCCCCCCCCCCC(=O)*; γGlu = O=C(O)[C@H](CCC(=O)[*:2])N[*:1]; NMeI = CC[C@H](C)[C@H](NC)C(=O)O; Sar = CNCC(=O)O

Columns and labels:
[1] = target: T1, human calcitonin receptor (hCTR2) (Homo sapiens, UniProt P30988); test: hCTR2 assay: induction of cAMP (AlphaScreen cAMP Assay kit) in COS7 cells expressing hCTR2; assay type: cell-based
T1 construct: expressed in transfected cells
T1 sequence (P30988 25-474): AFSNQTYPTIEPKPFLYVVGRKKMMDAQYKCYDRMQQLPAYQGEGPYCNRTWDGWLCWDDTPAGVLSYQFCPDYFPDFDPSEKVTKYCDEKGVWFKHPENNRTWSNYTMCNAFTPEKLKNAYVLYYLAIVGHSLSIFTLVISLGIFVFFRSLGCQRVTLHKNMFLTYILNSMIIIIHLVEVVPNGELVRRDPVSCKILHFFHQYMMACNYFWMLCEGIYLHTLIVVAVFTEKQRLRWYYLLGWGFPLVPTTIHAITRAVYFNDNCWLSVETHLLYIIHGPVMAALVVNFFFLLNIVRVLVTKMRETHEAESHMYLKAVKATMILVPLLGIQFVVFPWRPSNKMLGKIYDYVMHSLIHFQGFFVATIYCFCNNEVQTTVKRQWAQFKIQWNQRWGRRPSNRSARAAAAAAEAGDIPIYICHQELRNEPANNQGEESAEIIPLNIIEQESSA
Procedure, shortened: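 cAMP induction was measured by AlphaScreen in COS7 cells stably expressing hCTR2 without RAMPs, after 15 min at 37° C with increasing peptide concentrations, 100 µM IBMX and 0.1% casein (Tyrode, pH 7.4). A 4-parameter logistic fit gave EC50 and % efficacy versus pramlintide.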

[2] = Solubility assessment (turbidity absorbance at 325 nm); assay type: physicochemical; details: stock 2 mg/ml diluted 1:1, ambient temperature (typically 25°C), n=1; for Solubility, Acetate buffer pH 4: 100 mM acetate buffer pH 4.0; for Solubility, Acetate buffer pH 5: 100 mM acetate buffer pH 5.0; for Solubility, Histidine buffer pH 6: 100 mM histidine buffer pH 6.0; for Solubility, Histidine buffer pH 7: 100 mM histidine buffer pH 7.0; for Solubility, Phosphate buffer pH 6: 100 mM phosphate buffer pH 6.0; for Solubility, Phosphate buffer pH 7: 100 mM phosphate buffer pH 7.0; for Solubility, Phosphate buffer pH 7.5: 100 mM phosphate buffer pH7.5
Procedure, shortened: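 Turbidimetric screen across pH 4.0–7.5 in 100 mM acetate, histidine and phosphate buffers. A 2 mg/ml peptide stock (pH 2.5) was diluted 1:1 into each, then A325 measured at ambient temperature; values ≤ 0.02 AU denoted solubility of 1 mg/ml or more.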

EC50 ([1]; cAMP induction in COS7 cells expressing hCTR2, average of a minimum of 3 determinations, read-out: hCTR2 EC50) [nM] | SMILES | Solubility, Acetate buffer pH 4 [2] | Solubility, Acetate buffer pH 5 [2] | Solubility, Histidine buffer pH 6 [2] | Solubility, Histidine buffer pH 7 [2] | Solubility, Phosphate buffer pH 6 [2] | Solubility, Phosphate buffer pH 7 [2] | Solubility, Phosphate buffer pH 7.5 [2] | EC50 [1] [nM]
0.17 | CC[C@H](C)[C@@H](C(=O)N[C@@H](CC(C)C)C(=O)N[C@@H](CO)C(=O)N[C@@H](CO)C(=O)N[C@H](C(=O)N[C@@H](CC(N)=O)C(=O)N[C@H](C(=O)NCC(=O)N[C@@H](CO)C(=O)N[C@@H](CC(N)=O)C(=O)N[C@H](C(=O)N1CCC[C@H]1C(N)=O)[C@@H](C)O)C(C)C)[C@@H](C)O)N(C)C(=O)CN(C)C(=O)[C@H](Cc1ccccc1)NC(=O)[C@@H](CC(N)=O)NC(=O)[C@H](CC(N)=O)NC(=O)[C@H](CO)NC(=O)[C@H](CO)NC(=O)[C@H](Cc1c[nH]cn1)NC(=O)[C@H](Cc1c[nH]cn1)NC(=O)[C@H](CC(C)C)NC(=O)[C@H](Cc1ccccc1)NC(=O)[C@H](CCC(=O)O)NC(=O)[C@H](C)NC(=O)[C@H](CC(C)C)NC(=O)[C@H](CCCNC(=N)N)NC(=O)[C@H](CCC(N)=O)NC(=O)[C@@H](NC(=O)[C@H](C)NC(=O)[C@@H]1CSSC[C@H](NC(=O)[C@H](CCCNC(=N)N)NC(=O)CC[C@H](NC(=O)CCCCCCCCCCCCCCCCCCC(=O)O)C(=O)O)C(=O)N[C@@H](CC(N)=O)C(=O)N[C@@H]([C@@H](C)O)C(=O)N[C@@H](C)C(=O)N[C@@H]([C@@H](C)O)C(=O)N1)[C@@H](C)O [Compound 36, [19CD]-isoGlu-RC()NTATC()ATQRLAEFLHHSSN-DAsn-F-Gly(Me)-Ile(Me)-LSSTNVGSNTP-NH2] ({C20 diacid-γGlu}-RCNTATCATQRLAEFLHHSSN[dN]F[Sar][NMeI]LSSTNVGSNTP-NH2; disulfide 2-7) | SS (SS indicates solubility ≥ 1mg/ml) | SS (SS indicates solubility ≥ 1mg/ml) | SS (SS indicates solubility ≥ 1mg/ml) | SS (SS indicates solubility ≥ 1mg/ml) | SS (SS indicates solubility ≥ 1mg/ml) | SS (SS indicates solubility ≥ 1mg/ml) | SS (SS indicates solubility ≥ 1mg/ml) | –
– | CC[C@H](C)[C@@H](C(=O)N[C@@H](CC(C)C)C(=O)N[C@@H](CO)C(=O)N[C@@H](CO)C(=O)N[C@@H](CC(N)=O)C(=O)N[C@H](C(=O)NCC(=O)N[C@@H](CO)C(=O)N[C@@H](CC(N)=O)C(=O)N[C@H](C(=O)N1CCC[C@H]1C(N)=O)[C@@H](C)O)C(C)C)N(C)C(=O)[C@H](C)NC(=O)CN(C)C(=O)[C@H](Cc1ccccc1)NC(=O)[C@H](CC(N)=O)NC(=O)[C@H](CC(N)=O)NC(=O)[C@H](CO)NC(=O)[C@H](CO)NC(=O)[C@H](Cc1c[nH]cn1)NC(=O)[C@H](Cc1c[nH]cn1)NC(=O)[C@H](CC(C)C)NC(=O)[C@H](Cc1ccccc1)NC(=O)[C@H](CCC(=O)O)NC(=O)[C@H](C)NC(=O)[C@H](CC(C)C)NC(=O)[C@H](CCCNC(=N)N)NC(=O)[C@H](CCC(N)=O)NC(=O)[C@@H](NC(=O)[C@H](C)NC(=O)[C@@H]1CSSC[C@H](NC(=O)[C@H](CCCNC(=N)N)NC(=O)CC[C@H](NC(=O)CCCCCCCCCCCCCCCCCCC(=O)O)C(=O)O)C(=O)N[C@@H](CC(N)=O)C(=O)N[C@@H]([C@@H](C)O)C(=O)N[C@@H](C)C(=O)N[C@@H]([C@@H](C)O)C(=O)N1)[C@@H](C)O [Compound 37, [19CD]-isoGlu-RC()NTATC()ATQRLAEFLHHSSNNF-Gly(Me)-A-Ile(Me)-LSSNVGSNTP-NH2] ({C20 diacid-γGlu}-RCNTATCATQRLAEFLHHSSNNF[Sar]A[NMeI]LSSNVGSNTP-NH2; disulfide 2-7) | SS (SS indicates solubility ≥ 1mg/ml) | SS (SS indicates solubility ≥ 1mg/ml) | SS (SS indicates solubility ≥ 1mg/ml) | SS (SS indicates solubility ≥ 1mg/ml) | SS (SS indicates solubility ≥ 1mg/ml) | SS (SS indicates solubility ≥ 1mg/ml) | SS (SS indicates solubility ≥ 1mg/ml) | 0.39
– | CC[C@H](C)[C@@H](C(=O)N[C@@H](CC(C)C)C(=O)N[C@@H](CO)C(=O)N[C@@H](CO)C(=O)N[C@H](C(=O)N[C@@H](CC(N)=O)C(=O)N[C@H](C(=O)NCC(=O)N[C@@H](CO)C(=O)N[C@@H](CC(N)=O)C(=O)N[C@H](C(=O)N1CCC[C@H]1C(N)=O)[C@@H](C)O)C(C)C)[C@@H](C)O)N(C)C(=O)CN(C)C(=O)[C@H](Cc1ccccc1)NC(=O)[C@H](CC(N)=O)NC(=O)[C@H](CO)NC(=O)[C@H](CO)NC(=O)[C@H](Cc1c[nH]cn1)NC(=O)[C@H](Cc1c[nH]cn1)NC(=O)[C@H](CC(C)C)NC(=O)[C@H](Cc1ccccc1)NC(=O)[C@H](CCC(=O)O)NC(=O)[C@H](C)NC(=O)[C@H](CC(C)C)NC(=O)[C@H](CCCNC(=N)N)NC(=O)[C@H](CCC(N)=O)NC(=O)[C@@H](NC(=O)[C@H](C)NC(=O)[C@@H]1CSSC[C@H](NC(=O)[C@H](CCCNC(=N)N)NC(=O)CC[C@H](NC(=O)CCCCCCCCCCCCCCCCCCC(=O)O)C(=O)O)C(=O)N[C@@H](CC(N)=O)C(=O)N[C@@H]([C@@H](C)O)C(=O)N[C@@H](C)C(=O)N[C@@H]([C@@H](C)O)C(=O)N1)[C@@H](C)O [Compound 38, [19CD]-isoGlu-RC()NTATC()ATQRLAEFLHHSSNF-Gly(Me)-Ile(Me)-LSSTNVGSNTP-NH2] ({C20 diacid-γGlu}-RCNTATCATQRLAEFLHHSSNF[Sar][NMeI]LSSTNVGSNTP-NH2; disulfide 2-7) | II (II indicates solubility ≤ 1 mg/ml) | II (II indicates solubility ≤ 1 mg/ml) | II (II indicates solubility ≤ 1 mg/ml) | II (II indicates solubility ≤ 1 mg/ml) | II (II indicates solubility ≤ 1 mg/ml) | II (II indicates solubility ≤ 1 mg/ml) | II (II indicates solubility ≤ 1 mg/ml) | 0.16
– | CC[C@H](C)[C@@H](C(=O)N[C@@H](CC(C)C)C(=O)N[C@@H](CO)C(=O)N[C@@H](CO)C(=O)N[C@H](C(=O)N[C@@H](CC(N)=O)C(=O)N[C@H](C(=O)NCC(=O)N[C@@H](CO)C(=O)N[C@@H](CC(N)=O)C(=O)N[C@H](C(=O)N1CCC[C@H]1C(N)=O)[C@@H](C)O)C(C)C)[C@@H](C)O)N(C)C(=O)[C@H](C)NC(=O)CN(C)C(=O)[C@H](Cc1ccccc1)NC(=O)[C@H](CC(N)=O)NC(=O)[C@H](CC(N)=O)NC(=O)[C@H](CO)NC(=O)[C@H](CO)NC(=O)[C@H](Cc1c[nH]cn1)NC(=O)[C@H](CC(C)C)NC(=O)[C@H](Cc1ccccc1)NC(=O)[C@H](CCC(=O)O)NC(=O)[C@H](C)NC(=O)[C@H](CC(C)C)NC(=O)[C@H](CCCNC(=N)N)NC(=O)[C@H](CCC(N)=O)NC(=O)[C@@H](NC(=O)[C@H](C)NC(=O)[C@@H]1CSSC[C@H](NC(=O)[C@H](CCCNC(=N)N)NC(=O)CC[C@H](NC(=O)CCCCCCCCCCCCCCCCCCC(=O)O)C(=O)O)C(=O)N[C@@H](CC(N)=O)C(=O)N[C@@H]([C@@H](C)O)C(=O)N[C@@H](C)C(=O)N[C@@H]([C@@H](C)O)C(=O)N1)[C@@H](C)O [Compound 39, [19CD]-isoGlu-RC()NTATC()ATQRLAEFLHSSNNF-Gly(Me)-A-Ile(Me)-LSSTNVGSNTP-NH2] ({C20 diacid-γGlu}-RCNTATCATQRLAEFLHSSNNF[Sar]A[NMeI]LSSTNVGSNTP-NH2; disulfide 2-7) | SS (SS indicates solubility ≥ 1mg/ml) | SS (SS indicates solubility ≥ 1mg/ml) | SS (SS indicates solubility ≥ 1mg/ml) | SS (SS indicates solubility ≥ 1mg/ml) | SS (SS indicates solubility ≥ 1mg/ml) | SS (SS indicates solubility ≥ 1mg/ml) | SS (SS indicates solubility ≥ 1mg/ml) | 0.19
